Data taken from PMC12501607, “Novel prolyl endopeptidase inhibitor from Myricaria germanica alleviates steatohepatitis” (RSC Advances, 2025).

How the values were obtained:
[1] = biological target: T1, Prolyl endopeptidase (PREP) (Homo sapiens, UniProt P48147); assay: Chromogenic enzyme assay (Z-Gly-Pro-pNA, […] nm) with recombinant human PREP; Lineweaver-Burk kinetics; assay type: biochemical
T1 sequence (P48147 1-710): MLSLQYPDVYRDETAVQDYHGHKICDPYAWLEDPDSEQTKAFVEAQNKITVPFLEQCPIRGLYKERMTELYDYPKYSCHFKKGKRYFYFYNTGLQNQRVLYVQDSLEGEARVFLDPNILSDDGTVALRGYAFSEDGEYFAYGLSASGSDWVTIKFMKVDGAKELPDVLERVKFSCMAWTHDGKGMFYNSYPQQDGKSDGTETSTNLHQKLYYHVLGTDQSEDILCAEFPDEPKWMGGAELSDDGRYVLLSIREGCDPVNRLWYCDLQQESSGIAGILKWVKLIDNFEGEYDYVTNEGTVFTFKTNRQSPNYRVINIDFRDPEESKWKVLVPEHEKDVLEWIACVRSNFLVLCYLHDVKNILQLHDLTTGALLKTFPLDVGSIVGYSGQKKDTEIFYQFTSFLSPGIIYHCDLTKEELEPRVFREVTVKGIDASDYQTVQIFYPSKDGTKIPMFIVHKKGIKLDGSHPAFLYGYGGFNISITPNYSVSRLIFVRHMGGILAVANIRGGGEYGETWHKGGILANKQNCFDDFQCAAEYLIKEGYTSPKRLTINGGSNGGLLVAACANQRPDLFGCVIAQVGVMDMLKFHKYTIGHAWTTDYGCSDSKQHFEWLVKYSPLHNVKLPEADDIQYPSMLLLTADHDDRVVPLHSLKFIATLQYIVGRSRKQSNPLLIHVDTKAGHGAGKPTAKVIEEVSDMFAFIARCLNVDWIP

[2] = biological target: T1, Prolyl endopeptidase (PREP); assay: Chromogenic enzyme assay (Z-Gly-Pro-pNA, […] nm) with recombinant human PREP; assay type: biochemical

Row | SMILES | IC50 [1] [µM] | IC50 [2] [µM]
1 | CCCCCCCCCCCCCCCCCCCCCCCCCC1CCCCC1O (racemic) [PREPi, (±)-2-pentacosylcyclohexanol] | 20 ± 1.6 | 
2 | COc1cc(C(=O)O)cc(OC)c1O [Fr-2, syringic acid] |  | 155 ± 1.8
